# Reference: patent publication US9764048B2, “Targeted molecular imaging probe and method for in vivo molecular imaging” (priority 2012, dated 2017)
# “Also recorded” adds a separate entry of the source. *1 amine or outer side, *2 acyl side, *3 side chain or, on linkers, in order; H or OH if unused. Where a SMILES comes first, the peptide text is derived from it. Where no end group is shown, it is not given here. [ ]: non-standard residue; d: D form. ξ: configuration not given here. X1 = O=C(C1C[C@H](O)CN1[*:1])[*:2]; Hyp = O=C(O)[C@@H]1C[C@@H](O)CN1; ξY = NC(Cc1ccc(O)cc1)C(=O)O; ξP = O=C(O)C1CCCN1; ξA = CC(N)C(=O)O
# Tests used:
# [1] = cited from earlier work
# HeLa-Cx43 cells [2] = assay: Cy5.5-Cx43SP1 cells binding and blocking experiment; assay type: cell-based; conditions: for binding / uptake of probe by HeLa-Cx43 cells: Cy5.5-Cx43SP1 500 nmol/L, fluorescence microscopy
# From the text: (§1) 1) Establishment of a Cx43 highly expressing cell line: Cervical cancer HeLa cells were transfected by Cx43 gene, and cervical cancer tumor cell lines HeLa-Cx43 overexpressing Cx43 was successfully prepared. Non-transgenic HeLa cells (without C43 expression) were used as control.
# (§2) 2) Cy5.5-Cx43SP1 cells binding and blocking experiment: HeLa-Cx43 cells and the control group HeLa-Control cells were applied onto a 12-well plate in an amount of 0.5×10^6/well one day prior to experiment, and were classified into four groups: Group A: HeLa-Cx43 cells group, Group B: HeLa-Control cells group, Group C: HeLa-Cx43 cells blocking group, Group D: HeLa-Control cells blocking group. Each group comprises 3 wells and the experiment was repeated for 3 times. Into each well was added Cy5.5-Cx43SP1 with a concentration of 500 nmol/L and an amount of 1 ml. Unlabeled Cx43SP1 was added into blocking groups with a concentration of 5 μmol/L.
# HeLa tumor = assay: Optical tumor imaging of nude mice bearing tumor, control xenograft; assay type: in vivo, nude mouse; conditions: near-infrared fluorescent imaging, 1 h after tail vein injection
# Experimental: (§3) HeLa-Cx43 cells overexpressing Cx43 were used to establish a subcutaneous xenograft model in nude mouse (FIG. 9, left), and the conventional subcutaneous xenograft model of HeLa cells without transfection of Cx43 were used as control group (FIG. 9, right). In vivo Cy5.5-Cx43SP1 near-infrared fluorescent imaging of tumor was carried out.
# HeLa-Control cells [3] = assay: Cy5.5-Cx43SP1 cells binding and blocking experiment, control cells; assay type: cell-based; conditions: for binding / uptake of probe by control HeLa cells: Cy5.5-Cx43SP1 500 nmol/L, HeLa without Cx43 transfection
# From the text: as §1, §2
# [4] = test system: HeLa-Cx43 tumor overexpressing Cx43; assay: Optical tumor imaging of nude mice bearing tumor; assay type: in vivo, nude mouse; conditions: near-infrared fluorescent imaging, 1 h after tail vein injection
# Experimental: as §3
# [5] = Biological distribution of Cy5.5-Cx43SP in normal mice, ex vivo near-infrared fluorescent imaging of main organs; conditions: mouse
# Experimental: 1 hour after injection of Cy5.5-Cx43SP, the mice were sacrificed, and their organs were taken out to perform ex vivo near-infrared fluorescent imaging of main organs. […] Especially, the relatively high uptake by heart is highly consistent with the fact that normal heart express relatively high Cx43 (FIG. 6).
# myocardial gap junctions = assay: Fluorescence microscopy of frozen tissue sections after tail vein injection of the probe; assay type: in vivo; conditions: 1 h after tail vein injection
# From the text: Meanwhile, frozen sections of tissue were further prepared and imaged under a fluorescence microscope. By using muscle as a control (FIGS. 3-a, 3-b, and 3-c), the distribution profile of the probe Cy5.5-Cx43SP in heart was observed under a fluorescence microscope.
# HeLa-Control cells [6] = assay: ^64Cu-NODA-Cx43SP1 cells binding and blocking experiment, control cells; assay type: cell-based; conditions: 3.2 μCi/well, HeLa without Cx43 transfection
# From the text: as §1
# (§4) HeLa-Cx43 cells and control group HeLa-Control cells were applied onto a 12-well plate in an amount of 0.5×10^6/well one day prior to experiment, and were classified into four groups: Group A: HeLa-Cx43 cells group, Group B: HeLa-Control cells group, Group C: HeLa-Cx43 cells blocking group, Group D: HeLa-Control cells blocking group. Each group comprises 3 wells, and the experiment was repeated for 3 times. Into each well was added ^64Cu-NODA-Cx43SP1 with a concentration of 3.2 μCi/well and an amount of 1 ml. Unlabeled NODA-Cx43SP1 was added into the blocking groups with a concentration of 50 μg/well (10 times of ^64Cu-NODA-Cx43SP1).
# HeLa-Cx43 cells [7] = assay: ^64Cu-NODA-Cx43SP1 cells binding and blocking experiment; assay type: cell-based
# From the text: as §1, §4
compound,measurement,setting,value
"CC(NC(=O)CN)C(=O)NCC(=O)N1C[C@@H](O)CC1C(=O)N1CCCC1C(=O)NC(Cc1ccc(O)cc1)C(N)=O (stereo partly drawn) [AAP10, Gly-Ala-Pro-Gly-4 Hyp-Pro-Tyr] (H-G[ξA]G[X1][ξP][ξY]-NH2)",stability in plasma,[1],not stable in plasma
"Cy5.5-Cx43SP1: Cx43SP1 labeled with near-infrared fluorescent dye Cy5.5 via Cy5.5-NHS (GAPG[Hyp]PY; also: Cy5.5 coupled via Cy5.5-NHS, site not given here)",binding / uptake of probe by HeLa-Cx43 cells,HeLa-Cx43 cells [2],significant specific binding
same,binding / uptake of probe by HeLa-Cx43 cells,HeLa-Cx43 cells [2]; listed as Cy5.5-Cx43SP,uptake a large amount
same,binding / uptake by HeLa-Cx43 cells after blocking,HeLa-Cx43 cells [2]; blocking with excess unlabeled Cx43SP 5 μmol/L,substantially reduced; also recorded: decreases significantly
same,gathering of probe at control HeLa tumor,HeLa tumor,no obvious gather; also recorded: not concentrated at the HeLa tumor site
same,binding / uptake of probe by control HeLa cells,HeLa-Control cells [3],no binding
same,binding / uptake of probe by control HeLa cells,HeLa-Control cells [3]; listed as Cy5.5-Cx43SP,not uptaken
same,uptake by control HeLa cells after blocking,HeLa-Control cells [3]; blocking with excess unlabeled Cx43SP,still do not uptake
same,gathering of probe at HeLa-Cx43 tumor,[4],gathered in the location of HeLa-Cx43 tumor overexpressing Cx43 in high concentration; also recorded: gathered at tumor site of HeLa-Cx43 overexpressing Cx43 in large amount
same,excretion route,[5]; 1 h after injection,"mainly excreted through liver and intestinal tract, and partly through kidney and urinary system; also recorded: mostly excreted via liver and intestinal tract"
same,organ distribution of probe,"[5]; 1 h after tail vein injection, ex vivo organs","mainly distributed in heart, liver, gastrointestinal tract; also recorded: significantly gathered in the heart, stomach, liver, gall bladder and intestinal tract"
same,gathering of probe in muscular tissue (control),myocardial gap junctions; frozen section of muscle,not gathered in the muscular tissue
same,gathering of probe in myocardial tissue,myocardial gap junctions; frozen section of myocardium,gathered in the myocardial tissue in large amount
same,location of probe within myocardium,myocardial gap junctions; frozen section of myocardium,mainly distributed at the location of gap junctions between myocardial cells
"^64Cu-NODA-Cx43SP1: NODA-modified Cx43SP1 labeled with ^64Cu, PET probe (GAPG[Hyp]PY; also: NODA chelator carrying 64Cu, site not given here)",binding of probe to control HeLa cells,HeLa-Control cells [6],no binding
same,binding of probe to HeLa-Cx43 cells,HeLa-Cx43 cells [7]; 3.2 μCi/well,significant specific binding
same,binding to HeLa-Cx43 in the blocking experiment,HeLa-Cx43 cells [7]; unlabeled NODA-Cx43SP1 50 μg/well,substantially reduced
